# Tested on: T cell lines from grass-allergic patients primed in vitro with affinity purified Lol p V
# Assay: T cell proliferation (tritiated thymidine uptake) of Lol p V-primed T cell lines restimulated with peptides or proteins
# Assay type: cell-based, human
# Conditions: for mean T cell stimulation index (S.I.): mean of positive responses (S.I. at least 2), FIGS. 4 and 5
# Text: As discussed in Example 2, human T cell stimulating activity can be tested by culturing T cells obtained from an individual sensitive to Lol p V allergen, (i.e., an individual who has an IgE mediated immune response to Lol p V allergen) with a peptide derived from the allergen and determining whether proliferation of T cells occurs in response to the peptide as measured, e.g., by cellular uptake of tritiated thymidine. Stimulation indices for responses by T cells to peptides can be calculated as the maximum CPM in response to a peptide divided by the control CPM. A stimulation index (S.I.) equal to or greater than two times the background level is considered "positive". Positive results are used to calculate the mean stimulation index for each peptide for the group of patients tested. In FIGS. 4 and 5 the mean T cell stimulation index is indicated above the bar. Preferred peptides of this invention comprise at least one T cell epitope and have a mean T cell stimulation index of greater than or equal to 2.0. A peptide having a mean T cell stimulation index of greater than or equal to 2.0 in a significant number of ryegrass pollen sensitive patients tested is considered useful as a therapeutic agent. Preferred peptides have a mean T cell stimulation index of at least 2.5, more preferably at least 3.0, more preferably at least 3.5, more preferably at least 4.0, more preferably at least 5.0 and most preferably at least about 6. For example, peptides of the invention having a mean T cell stimulation index of at least 5, as indicated by data shown in FIGS. 4 and 5, include peptides LPIX-4 (SEQ ID NO:6), LPIX-5 (SEQ ID NO:7), LPIX-8 (SEQ ID NO:10) LPIX-17 (SEQ ID NO:19) and LPIX-19 (SEQ ID NO:21).
# In addition, preferred peptides have a positivity index (P.I.) of at least about 60, more preferably about 100, more preferably at least about 200 and most preferably at least about 300. The positivity index for a peptide is determined by multiplying the mean T cell stimulation index by the percent of individuals, in a population of individuals sensitive to ryegrass pollen (e.g., preferably a population of at least 15 individuals,more preferably a population of at least 30 individuals or more), who have a T cell stimulation index to such peptide of at least 2.0. Thus, the positivity index represents both the strength of a T cell response to a peptide (S.I.) and the frequency of a T cell response to a peptide in a population of individuals sensitive to ryegrass pollen. In FIG. 4, the bar represents the positivity index and the percent of individuals tested who have a T cell stimulation index of at least 2.0 to that peptide are indicated in parenthesis above each bar (the mean T cell stimulation index is also indicated above each bar). […] Lol p V peptides having a positivity index of at least about 100 and a mean T cell stimulation index of at least about 4 include: LPIX-4 (SEQ ID NO:6), LPIX-5 (SEQ ID NO:7), and LPIX-17 (SEQ ID NO:19).
# In FIG. 5, the bar represents the cumulative rank of the peptide response in the group of patients tested as described in Example 2. To determine the cumulative rank, the 5 peptides with the highest S.I. in each individual were determined and assigned a numerical rank in descending order, with 5 representing the strongest response. The ranks for each peptide were then summed for the entire group of patients tested to determine the cumulative rank for the peptide. Above each bar is the mean S.I. for each peptide and the percent of positive responses (in parenthesis) with an S.I. of at least 2 to the peptide in the group of patients tested.
# This amount of priming antigen was determined to be optimal for the activation of T cells from most grass-allergic patients. Viable cells were purified by LSM centrifugation and cultured in complete medium, supplemented with 5 units recombinant human IL-2/ml and 5 units recombinant human IL-4/ml for up to 3 weeks until the desired cell number were achieved. […]
Substance,"positivity index (P.I.; % of patients responding multiplied by mean S.I.) (19 patients, FIG. 4)",mean T cell stimulation index (S.I.) (19 patients),further results
"LPIX-4: synthetic overlapping peptide derived from Lol p V, sequence shown in FIG. 2 (EQKLLEDVNAGFKAAVAAAA)",at least 100,–,–
"LPIX-5: synthetic overlapping peptide derived from Lol p V, sequence shown in FIG. 2 (GFKAAVAAAANAPPADKFKI)",–,–,"percent of positive responses (patients with S.I. of at least 2.0) (group of 19 patients tested, FIG. 4): 26.3%"
"LPIX-8: synthetic overlapping peptide derived from Lol p V, sequence shown in FIG. 2 (GLLATSAAKAPGLIPKLDTA)",–,at least 5,–
"LPIX-17: synthetic overlapping peptide derived from Lol p V, sequence shown in FIG. 2 (ATAANAAPTNDKFTVFESAF)",at least 100,–,–
"LPIX-19: synthetic overlapping peptide derived from Lol p V, sequence shown in FIG. 2 (NKALNECTGGAYETYKFIPS)",–,at least 5,–
"LPIX-20: synthetic overlapping peptide derived from Lol p V, sequence shown in FIG. 2 (AYETYKFIPSLEAAVKQAYA)",–,–,"ranked sum (cumulative rank of the peptide response) (19 patients, 5 highest S.I. per individual ranked and summed, FIG. 5): highest ranked sum"
